According to PubChem BioAssay AID330 (DTP/NCI, 2004):
Several values for one entry are separate records, joined by “and”; a condition that tells them apart may be missing. Identical values can stand only once. Inconclusive results and toxic doses are left out. Rule for the calls: active = survival T/C of 150% or more; inactive = T/C below 125% in these data.

Test system: P388 leukemia ip, CD2F1 mice, survival T/C
Experiment: NCI In Vivo Anticancer Drug Screen. Data for tumor model P388 Leukemia (intraperitoneal) in CD2F1 (CDF1) mice
Conditions: endpoint: median survival time, higher = longer survival
Method in brief: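 Mice carrying the transplanted tumor received test compound or vehicle. Survival was recorded in each group, and the value is the treated-group measurement divided by that of the vehicle-treated control group.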

[1] = dose: 50.0 mg/kg/injection, schedule: Q01DX005 (ip), vehicle: Klucel (hydroxypropylcellulose) (HPC)
[2] = dose: 100.0 mg/kg/injection, schedule: Q01DX005 (ip), vehicle: Klucel (hydroxypropylcellulose) (HPC)
[3] = dose: 50.0 mg/kg/injection, schedule: Q01DX005 (ip), vehicle: saline with Tween-80
[4] = dose: 100.0 mg/kg/injection, schedule: Q01DX005 (ip), vehicle: saline with Tween-80
[5] = dose: 200.0 mg/kg/injection, schedule: Q01DX005 (ip), vehicle: saline with Tween-80
[6] = dose: 400.0 mg/kg/injection, schedule: Q04DX003 (ip), vehicle: saline

Measured: T/C

O=c1[nH]c2cc(Cl)ccc2nc1/C=C(\O)c1cccc(O)c1
inactive: dose: 15.0 mg/kg/injection, schedule: Q01DX005 (ip), vehicle: Klucel + Tween-80 106 % of control | dose: 30.0 mg/kg/injection, schedule: Q01DX005 (ip), vehicle: Klucel + Tween-80 94 % of control | dose: 60.0 mg/kg/injection, schedule: Q01DX005 (ip), vehicle: Klucel + Tween-80 101 % of control and 88 % of control

O=C(O)C1CSC(c2coc3ccccc3c2=O)N1 (centres undefined)
inactive: dose: 50.0 mg/kg/injection, schedule: Q01DX009 (ip), vehicle: suspension in saline 108 % of control | dose: 100.0 mg/kg/injection, schedule: Q01DX009 (ip), vehicle: suspension in saline 117 % of control | dose: 200.0 mg/kg/injection, schedule: Q01DX009 (ip), vehicle: suspension in saline 108 % of control

CC(=O)NC(Cc1ccc(N(CCCl)CCCl)cc1)C(=O)NC(CC(C)C)C(=O)O (centres undefined)
active: dose: 42.6 mg/kg/injection, schedule: Q04DX003 (ip), vehicle: saline with Tween-80 173 % of control | dose: 64.0 mg/kg/injection, schedule: Q04DX003 (ip), vehicle: saline with Tween-80 166 % of control | dose: 96.0 mg/kg/injection, schedule: Q04DX003 (ip), vehicle: saline with Tween-80 180 % of control
inactive: dose: 5.0 mg/kg/injection, schedule: Q04DX003 (ip), vehicle: water 100 % of control | dose: 8.4 mg/kg/injection, schedule: Q04DX003 (ip), vehicle: saline with Tween-80 111 % of control | dose: 10.0 mg/kg/injection, schedule: Q04DX003 (ip), vehicle: water 95 % of control | dose: 18.9 mg/kg/injection, schedule: Q04DX003 (ip), vehicle: saline with Tween-80 121 % of control | dose: 20.0 mg/kg/injection, schedule: Q04DX003 (ip), vehicle: water 118 % of control

CC1CCC(C(=O)C(Cl)Cc2ccccc2)CC1 (centres undefined)
inactive: [1] 88 % of control | [2] 92 % of control

O=C1CN(Cc2ccc(Cl)cc2)CC(=O)N2Cc3ccccc3CN12
inactive: [3] 102 % of control | [4] 104 % of control | [5] 103 % of control

CC(=O)c1c(-c2ccc(F)cc2)c(-c2ccc(F)cc2)nn(CCO)c1=O
inactive: [3] 98 % of control | [4] 100 % of control | [5] 98 % of control

N#CC(Cc1ccccc1)(c1ccccc1)c1ccccc1
inactive: dose: 50.0 mg/kg/injection, schedule: Q01DX009 (ip), vehicle: Klucel (hydroxypropylcellulose) (HPC) 101 % of control | dose: 100.0 mg/kg/injection, schedule: Q01DX009 (ip), vehicle: Klucel (hydroxypropylcellulose) (HPC) 96 % of control | dose: 200.0 mg/kg/injection, schedule: Q01DX009 (ip), vehicle: Klucel (hydroxypropylcellulose) (HPC) 93 % of control | dose: 400.0 mg/kg/injection, schedule: Q01DX009 (ip), vehicle: Klucel (hydroxypropylcellulose) (HPC) 93 % of control

CCCCCC(C(=O)O)(c1ccccc1)c1ccccc1
inactive: [3] 106 % of control | [4] 106 % of control | [5] 106 % of control

COc1cc(/C=N/NC(=O)COCC(=O)N/N=C/c2ccc(O)cc2OC)ccc1O
inactive: dose: 6.25 mg/kg/injection, schedule: Q01DX005 (ip), vehicle: saline with Tween-80 103 % of control | dose: 12.5 mg/kg/injection, schedule: Q01DX005 (ip), vehicle: saline with Tween-80 101 % of control | dose: 25.0 mg/kg/injection, schedule: Q01DX005 (ip), vehicle: saline with Tween-80 105 % of control

COc1cc2c(cc1OC(C)=O)C(=O)CCC=C2
inactive: dose: 33.0 mg/kg/injection, schedule: Q04DX003 (ip), vehicle: saline 100 % of control | dose: 50.0 mg/kg/injection, schedule: Q04DX003 (ip), vehicle: saline 104 % of control | dose: 75.0 mg/kg/injection, schedule: Q04DX003 (ip), vehicle: saline 112 % of control | [6] 120 % of control

Cn1c(=O)c2c(c3ccccc31)OC(C)(C)C=C2
inactive: [3] 100 % of control | [4] 100 % of control | [5] 105 % of control

O=[N+]([O-])c1nc(-[n+]2ccccc2)[n-]c1Br
inactive: dose: 100.0 mg/kg/injection, schedule: Q04DX003 (ip), vehicle: saline 98 % of control | dose: 200.0 mg/kg/injection, schedule: Q04DX003 (ip), vehicle: saline 100 % of control | [6] 95 % of control

CC(C)(C)OC1CCC2=CC(=O)CCC21C (centres undefined)
inactive: dose: 100.0 mg/kg/injection, schedule: Q04DX002 (ip), vehicle: other 119 % of control

O=c1ccn(C2CC(O)C(CO)O2)c(=O)[nH]1 (centres undefined)
inactive: [1] 100 % of control | [2] 101 % of control | dose: 200.0 mg/kg/injection, schedule: Q01DX005 (ip), vehicle: Klucel (hydroxypropylcellulose) (HPC) 106 % of control

N#CCCSc1ccccc1N=Cc1ccccc1O
inactive: dose: 50.0 mg/kg/injection, schedule: Q01DX009 (ip), vehicle: saline 101 % of control | dose: 100.0 mg/kg/injection, schedule: Q01DX009 (ip), vehicle: saline 99 % of control | dose: 200.0 mg/kg/injection, schedule: Q01DX009 (ip), vehicle: saline 95 % of control
